In patent US5753695A, “Flavilium compounds and method of using” (Biogal Gyogyszergyar RT, priority 1992, dated 1998):

Experiments:
HIV-1 IIIB = experiment: HIV reverse transcriptase activity / HIV replication in infected MT-4 and H9 human lymphocyte cell-lines; format: cell-based, HIV-1 strain IIIB
Method: The HIV reverse transcriptase inhibiting activity of compounds of formula (I) of the invention was measured by the method of Hoffman, A. D. et al. described in Virology, Vol. 147, pp. 326-335, 1985.
The measurement results are shown for the model compound 5,7,4'-trihydroxy-4,3',5'-trimethyl-flavilium chloride (hereinafter referred to as "BIOGAL 6") and prepared as described in Example 1 below.
The active agents were tested on MT-4 and H9 human lymphocyte cell-lines infected with the strain HIV-1 IIIB. The cells were infected with 20 TCID50 of the HIV-1 virus.
[…] The active agent was first added to the culture 4 hours before the infection, and then 24, and 48 hours after infection. HIV infected, untreated MT-4 and H9 cells were used, as well as uninfected, untreated cells as a control. The AZT-control was zidovudine (ZDU) sold by Burroughs Wellcome Company under the name Retrovir.
Reverse transcriptase inhibiting activity was determined on 500 μl aliquots from supernatant of the culture and their virus concentration was measured. The results are given in cpm/cm^3 indicating ^3 H-TTP.

CFP/SPF laboratory mice = experiment: Acute toxicity, CFP/SPF laboratory mice; format: in vivo; conditions: oral doses even as high as 2,000 μg/kg
Method: (§1) Acute toxicity examinations on CFP/SPF laboratory mice strains and WISTAR Charles River/SPF laboratory rat strains, orally and intravenously have shown that BIOGAL-6 is nontoxic at oral doses even as high as […].

[1] = tested on: WISTAR Charles River/SPF laboratory rat strains; experiment: Acute toxicity, WISTAR Charles River/SPF laboratory rats; format: in vivo; conditions: oral doses even as high as 2,000 μg/kg
Method: as §1

For Cc1cn([C@H]2C[C@H](N=[N+]=[N-])[C@@H](CO)O2)c(=O)[nH]c1=O [AZT, azidothymidine, reference compound], the RT activity (HIV-1 IIIB; Table 1, 5 μg/cm^3, 7 day) was 2.195 cpm/cm^3, the RT activity (HIV-1 IIIB; Table 1, 5 μg/cm^3, 10 day) was 2.127 cpm/cm^3 and the RT activity (HIV-1 IIIB; Table 1, 5 μg/cm^3, 18 day) was 38.797 cpm/cm^3. For the same compound, the RT activity (HIV-1 IIIB; Table 1, 20 μg/cm^3, 7 day) was 2.386 cpm/cm^3, the RT activity (HIV-1 IIIB; Table 1, 20 μg/cm^3, 10 day) was 2.224 cpm/cm^3 and the RT activity (HIV-1 IIIB; Table 1, 20 μg/cm^3, 18 day) was 1.921 cpm/cm^3. For the same compound, the RT activity (HIV-1 IIIB; Table 1, 100 μg/cm^3, 7 day) was 2.220 cpm/cm^3, the RT activity (HIV-1 IIIB; Table 1, 100 μg/cm^3, 10 day) was 2.181 cpm/cm^3 and the RT activity (HIV-1 IIIB; Table 1, 100 μg/cm^3, 18 day) was 1.838 cpm/cm^3. It also gave an RT activity (HIV-1 IIIB; Table 2, 0.1 μg/cm^3, 7 day) of 7.392 cpm/cm^3, an RT activity (HIV-1 IIIB; Table 2, 0.1 μg/cm^3, 10 day) of 125.627 cpm/cm^3 and an RT activity (HIV-1 IIIB; Table 2, 0.1 μg/cm^3, 18 day) of 62.817 cpm/cm^3. The RT activity (HIV-1 IIIB; Table 2, 0.5 μg/cm^3, 7 day) was 6.148 cpm/cm^3, the RT activity (HIV-1 IIIB; Table 2, 0.5 μg/cm^3, 10 day) was 75.051 cpm/cm^3 and the RT activity (HIV-1 IIIB; Table 2, 0.5 μg/cm^3, 18 day) was 84.047 cpm/cm^3. For the same compound, the RT activity (HIV-1 IIIB; Table 2, 1.0 μg/cm^3, 7 day) was 3.989 cpm/cm^3, the RT activity (HIV-1 IIIB; Table 2, 1.0 μg/cm^3, 10 day) was 15.115 cpm/cm^3 and the RT activity (HIV-1 IIIB; Table 2, 1.0 μg/cm^3, 18 day) was 75.539 cpm/cm^3. It also gave an RT activity (HIV-1 IIIB; Table 2, 2.5 μg/cm^3, 7 day) of 3.231 cpm/cm^3, an RT activity (HIV-1 IIIB; Table 2, 2.5 μg/cm^3, 10 day) of 9.083 cpm/cm^3 and an RT activity (HIV-1 IIIB; Table 2, 2.5 μg/cm^3, 18 day) of 116.001 cpm/cm^3. For the same compound, the RT activity (HIV-1 IIIB; Table 2, 5.0 μg/cm^3, 7 day) was 1.724 cpm/cm^3, the RT activity (HIV-1 IIIB; Table 2, 5.0 μg/cm^3, 10 day) was 3.571 cpm/cm^3 and the RT activity (HIV-1 IIIB; Table 2, 5.0 μg/cm^3, 18 day) was 51.735 cpm/cm^3.
For Cc1cc(-c2cc(C)c3c(O)cc(O)cc3[o+]2)cc(C)c1O [BIOGAL 6, 5,7,4'-trihydroxy-4,3',5'-trimethyl-flavilium chloride], the “effect on HIV (in words)” value (HIV-1 IIIB; 1.0 μg/cm^3 and below) was “completely ineffective”, the “effect on HIV replication (in words)” value (HIV-1 IIIB; 5 μg/cm^3) was “completely blocked the HIV replication” and the “duration of effect compared to AZT (in words), FIG. 1” value (HIV-1 IIIB; 5 μg/cm^3, FIG. 1) was “long lasting when compared to AZT”. The “effect on HIV production (in words), FIG. 1” value (HIV-1 IIIB; 5 μg/cm^3, FIG. 1) was “completely blocked HIV production”, the “duration of effect on HIV (in words)” value (HIV-1 IIIB; 2.5 and 5 μg/cm^3) was “long-lasting” and the RT activity (HIV-1 IIIB; Table 1, 5 μg/cm^3, 7 day) was 1.795 cpm/cm^3. For the same compound, the RT activity (HIV-1 IIIB; Table 1, 5 μg/cm^3, 10 day) was 1.228 cpm/cm^3, the RT activity (HIV-1 IIIB; Table 1, 5 μg/cm^3, 18 day) was 1.198 cpm/cm^3 and the RT activity (HIV-1 IIIB; Table 1, 20 μg/cm^3, 7 day) was 1.748 cpm/cm^3. For the same compound, the RT activity (HIV-1 IIIB; Table 1, 20 μg/cm^3, 10 day) was 1.626 cpm/cm^3, the RT activity (HIV-1 IIIB; Table 1, 20 μg/cm^3, 18 day) was 1.300 cpm/cm^3 and the RT activity (HIV-1 IIIB; Table 1, 100 μg/cm^3, 7 day) was 1.666 cpm/cm^3. The RT activity (HIV-1 IIIB; Table 1, 100 μg/cm^3, 10 day) was 1.300 cpm/cm^3, the RT activity (HIV-1 IIIB; Table 1, 100 μg/cm^3, 18 day) was 1.359 cpm/cm^3 and the RT activity (HIV-1 IIIB; Table 2, 0.1 μg/cm^3, 7 day) was 111.035 cpm/cm^3. The RT activity (HIV-1 IIIB; Table 2, 0.1 μg/cm^3, 10 day) was 99.813 cpm/cm^3, the RT activity (HIV-1 IIIB; Table 2, 0.1 μg/cm^3, 18 day) was 45.535 cpm/cm^3 and the RT activity (HIV-1 IIIB; Table 2, 0.5 μg/cm^3, 7 day) was 108.846 cpm/cm^3. For the same compound, the RT activity (HIV-1 IIIB; Table 2, 0.5 μg/cm^3, 10 day) was 98.150 cpm/cm^3, the RT activity (HIV-1 IIIB; Table 2, 0.5 μg/cm^3, 18 day) was 43.804 cpm/cm^3 and the RT activity (HIV-1 IIIB; Table 2, 1.0 μg/cm^3, 7 day) was 96.638 cpm/cm^3. The RT activity (HIV-1 IIIB; Table 2, 1.0 μg/cm^3, 10 day) was 75.917 cpm/cm^3, the RT activity (HIV-1 IIIB; Table 2, 1.0 μg/cm^3, 18 day) was 38.595 cpm/cm^3 and the RT activity (HIV-1 IIIB; Table 2, 2.5 μg/cm^3, 7 day) was 6.231 cpm/cm^3. It also gave an RT activity (HIV-1 IIIB; Table 2, 2.5 μg/cm^3, 10 day) of 8.938 cpm/cm^3, an RT activity (HIV-1 IIIB; Table 2, 2.5 μg/cm^3, 18 day) of 6.803 cpm/cm^3 and an RT activity (HIV-1 IIIB; Table 2, 5.0 μg/cm^3, 7 day) of 1.478 cpm/cm^3. The RT activity (HIV-1 IIIB; Table 2, 5.0 μg/cm^3, 10 day) was 1.019 cpm/cm^3, the RT activity (HIV-1 IIIB; Table 2, 5.0 μg/cm^3, 18 day) was 1.226 cpm/cm^3 and the acute toxicity (CFP/SPF laboratory mice) was “nontoxic”. For the same compound, the acute toxicity [1] was “nontoxic”.
